In PMC4974627 (Biochemistry, 2016):

What was measured:
[1] = target: T1, AtGSNOR (Arabidopsis GSNOR) (Arabidopsis thaliana, UniProt Q96533); assay: residual GSNO reductase activity after CysNO incubation; assay type: biochemical; details: covalent (S-nitrosation of Cys10, Cys271, Cys370), reversible by DTT; one hour
[2] = target: ScSFA1 (yeast GSNOR, Sensitive to Formaldehyde 1) (Saccharomyces cerevisiae, UniProt P32771, C12A); assay: residual activity after CysNO versus CysSH treatment; assay type: biochemical; details: covalent (S-nitrosation); 2 mM CysNO
[3] = target: AtGSNOR (Arabidopsis GSNOR) (Arabidopsis thaliana, UniProt Q96533, C370A); assay: intact protein mass spectrometry; assay type: binding; details: covalent (S-nitrosation)
[4] = target: AtGSNOR (Arabidopsis GSNOR) (Arabidopsis thaliana, UniProt Q96533, C271A); assay: intact protein mass spectrometry; assay type: binding; details: covalent (S-nitrosation)
[5] = target: T1, AtGSNOR (Arabidopsis GSNOR); assay: time-dependent loss of activity on GSNO incubation; assay type: biochemical; details: covalent (presumed S-nitrosation); 1 mM GSNO, 20 µM protein

T1 sequence (Q96533 2-379): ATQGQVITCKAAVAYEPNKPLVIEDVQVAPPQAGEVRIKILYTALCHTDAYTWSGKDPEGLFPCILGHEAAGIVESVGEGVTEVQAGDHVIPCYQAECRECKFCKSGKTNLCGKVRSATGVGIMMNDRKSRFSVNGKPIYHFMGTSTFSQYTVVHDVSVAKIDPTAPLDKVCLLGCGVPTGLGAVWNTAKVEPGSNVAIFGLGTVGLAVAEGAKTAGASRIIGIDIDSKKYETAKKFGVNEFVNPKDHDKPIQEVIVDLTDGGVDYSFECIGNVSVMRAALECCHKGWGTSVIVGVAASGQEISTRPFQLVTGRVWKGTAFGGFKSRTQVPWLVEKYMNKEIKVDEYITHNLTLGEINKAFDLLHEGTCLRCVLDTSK
AtGSNOR (Arabidopsis GSNOR) (Arabidopsis thaliana, UniProt Q96533, C271A), sequence (Q96533 2-379 C271A): as the sequence (Q96533 2-379) above, with C270A counted along it
AtGSNOR (Arabidopsis GSNOR) (Arabidopsis thaliana, UniProt Q96533, C370A), sequence (Q96533 2-379 C370A): as the sequence (Q96533 2-379) above, with C369A counted along it
ScSFA1 (yeast GSNOR, Sensitive to Formaldehyde 1), sequence (P32771 whole entry C12A): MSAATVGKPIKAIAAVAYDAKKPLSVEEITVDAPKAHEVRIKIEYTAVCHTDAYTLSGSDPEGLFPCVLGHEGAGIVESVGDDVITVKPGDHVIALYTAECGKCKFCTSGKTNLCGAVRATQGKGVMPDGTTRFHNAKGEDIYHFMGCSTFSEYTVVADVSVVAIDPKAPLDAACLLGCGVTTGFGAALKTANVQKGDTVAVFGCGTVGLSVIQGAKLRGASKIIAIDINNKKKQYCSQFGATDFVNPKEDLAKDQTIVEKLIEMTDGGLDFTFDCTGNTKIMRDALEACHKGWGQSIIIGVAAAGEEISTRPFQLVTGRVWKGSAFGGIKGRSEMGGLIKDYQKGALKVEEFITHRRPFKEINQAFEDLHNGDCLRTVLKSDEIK

SMILES: N[C@@H](CSN=O)C(=O)O [CysNO]
- % decrease in activity at 125 μM [1]: ~ 40%
- residual activity after CysNO versus CysSH treatment [2]: ScSFA1^C12A and HsGSNOR^C8A were as sensitive to nitrosation as their corresponding wild-types
- intact protein mass spectrometry (+29 Da adducts) [3]: only two adducts were observed for single cysteine mutants (Fig. 2F, H, J)
- intact protein mass spectrometry (+29 Da adducts) [4]: only two adducts were observed for single cysteine mutants (Fig. 2F, H, J)

SMILES: N[C@@H](CCC(=O)N[C@@H](CSN=O)C(=O)NCC(=O)O)C(=O)O [GSNO]
- time-dependent loss of activity on GSNO incubation [5]: Incubation with GSNO caused a time-dependent decrease in the specific activity of unmodified AtGSNOR
